Reference: patent US5624917A, “Method of inhibiting squalene synthetase” (Takeda Chemical Industries, Ltd., priority 1991, dated 1997)
Structures can show the parent of a compound that is named as a salt. Where two headings read alike, the source gives them in different places.

Experiments:
squalene synthetase [1] = target: T1, squalene synthetase (Rattus norvegicus, UniProt Q02769); assay: Squalene synthetase inhibitory activity, rat enzyme (rat liver microsome fraction); assay type: biochemical; conditions: 5 μM [1-3H]farnesylpyrophosphoric acid, pH 7.4, 37° C., 45 minutes
T1 construct: from tissue; host or cells: liver of male SD rats (microsome fraction)
T1 sequence (Q02769 1-416): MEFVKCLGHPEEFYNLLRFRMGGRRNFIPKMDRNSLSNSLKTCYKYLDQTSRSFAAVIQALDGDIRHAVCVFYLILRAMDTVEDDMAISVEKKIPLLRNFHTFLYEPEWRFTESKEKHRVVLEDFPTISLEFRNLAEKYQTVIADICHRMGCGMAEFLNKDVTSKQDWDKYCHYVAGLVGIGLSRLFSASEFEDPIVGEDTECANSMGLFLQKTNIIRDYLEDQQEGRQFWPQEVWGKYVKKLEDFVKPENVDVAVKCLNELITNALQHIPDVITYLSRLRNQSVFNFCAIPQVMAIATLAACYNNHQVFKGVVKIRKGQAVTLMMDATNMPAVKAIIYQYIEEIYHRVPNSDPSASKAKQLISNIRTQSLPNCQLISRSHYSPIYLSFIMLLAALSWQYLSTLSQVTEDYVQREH
Method: (§1) Squalene synthetase inhibitory activity and cholesterol biosynthesis inhibitory activity of the compounds used in the present invention were determined by the following method.
(§2) Determination of squalene synthetase inhibitory activity
(§3) The squalene synthetase inhibitory activity was determined as follows by using the enzyme solutions shown in Experiments 1 and 2 below.
(§4) Each enzyme solution (Protein: 0.8 μg) prepared in Experiments 1 and 2 was added to a solution (total amount: 50 μl) containing 5 μM[1-^3 H]farnesylpyrophosphoric acid (Specific activity 25 μCi/μmole), 1 mM NADPH, 5 mM MgCl2, 6 mM glutathione, 100 mM potassium phosphate buffer (pH 7.4) and a drug to be tested (which was added as a solution thereof in water or DMSO). The mixture was allowed to react at 37° C. for 45 minutes. A mixture (150 μl) of chloroform and methanol (1:2) was added to stop the reaction. Then, chloroform (50 μl) and 3N sodium hydroxide solution (50 μl) were added. The chloroform layer (under layer, 50 μl) containing the reaction products in which the major component was squalene was mixed with toluene liquid scintillator (3 ml). The radioactivity was measured with a liquid scintillation counter.
(§5) The squalene synthetase inhibitory activity is indicated by the concentration (IC50, molarity(M)) which inhibits the radioactivity incorporated into the chloroform layer by 50%.
Preparation of rat enzyme
SD-Male rats (6 weeks old) were bled to death followed by removal of liver. The liver (ca. 10 g) was washed with ice-cooled physiological saline, homogenized in an ice-cooled buffer solution (15 ml) [100 mM potassium phosphate (pH 7.4), 15 mM nicotinamide, 2 mM MgCl2 ] and centrifuged at 10,000×g for 20 minutes (4° C.). The resulting supernatant was further centrifuged at 105,000×g for 90 minutes (4° C.). Then, the deposit was suspended in an ice-cooled 100 mM potassium phosphate buffer solution (pH 7.4) and centrifuged at 105,000×g for 90 minutes (4° C.) again. The deposit (microsome fraction) thus obtained was suspended in an ice-cooled 100 mM potassium phosphate buffer solution (pH 7.4) so that the protein concentration became about 40 mg/ml (measured with BCA Protein Assay Kit (Pias)), and the suspension was used as the enzyme solution.

squalene synthetase [2] = target: T2, squalene synthetase (Homo sapiens, UniProt P37268); assay: Squalene synthetase inhibitory activity, human enzyme (HepG2 microsome fraction); assay type: biochemical
T2 construct: From the resulting sonicate, microsome fraction was obtained according to the same manner as that described in Experiment 1; endogenous in cells; host or cells: HepG2 human hepatoma cells (microsome fraction)
T2 sequence (P37268 1-417): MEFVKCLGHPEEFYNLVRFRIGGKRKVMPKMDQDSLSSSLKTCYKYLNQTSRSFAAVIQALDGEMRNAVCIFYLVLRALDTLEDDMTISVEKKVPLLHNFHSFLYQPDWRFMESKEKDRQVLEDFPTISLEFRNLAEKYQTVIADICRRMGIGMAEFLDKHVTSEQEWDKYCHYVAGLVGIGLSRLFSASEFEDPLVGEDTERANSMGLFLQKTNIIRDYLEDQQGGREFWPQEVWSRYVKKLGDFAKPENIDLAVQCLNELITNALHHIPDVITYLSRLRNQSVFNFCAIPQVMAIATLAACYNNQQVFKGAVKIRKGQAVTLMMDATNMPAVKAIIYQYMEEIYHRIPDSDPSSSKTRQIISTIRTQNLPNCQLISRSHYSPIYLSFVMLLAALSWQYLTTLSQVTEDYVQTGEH
Method: as §1, §2, §3, §4, §5
Preparation of human enzyme
Cultivation was carried out on Dulbecco modified Eagle medium containing 10% bovine fetal serum in the presence of 5% CO2 at 37° C. The human hepatoma cells HepG2 (ca. 1×10^9 cells) were suspended in an ice-cooled buffer solution (10 ml) [100 mM potassium phosphate (pH 7.4), 30 mM nicotinamide, 2.5 mM MgCl2 ], and the cells were crushed by ultrasonication (30 seconds, twice). From the resulting sonicate, microsome fraction was obtained according to the same manner as that described in Experiment 1. This microsome fraction was suspended in an ice-cooled 100 mM potassium phosphate buffer solution (pH 7.4) so that the protein concentration became about 4 mg/ml, and this suspension was used as the enzyme liquid.

[3] = read-out: IC50, squalene synthetase inhibitory activity, Rat enzyme
[4] = human hepatoma HepG2 microsome fraction, 5 μM [1-3H]farnesylpyrophosphoric acid, pH 7.4, 37° C., 45 minutes, read-out: IC50, squalene synthetase inhibitory activity, Human enzyme
[5] = IC50, squalene synthetase inhibitory activity, Rat enzyme

SMILES | IC50 (squalene synthetase [1]; [3]) [nM] | IC50 (squalene synthetase [2]; [4]) [nM] | IC50 (squalene synthetase [1]; [5]) [nM] | IC50 (squalene synthetase [2]) [nM]
CC(C)CCCC(C)CCCC(C)CCC(P(=O)(O)O)P(=O)(O)O (centres unmarked) [Compound No. 108, disodium 4,8,12-trimethyltridecylidene-1,1-bisphosphonate] | 23 | 44 |  | 
O=P(O)(O)C(O)(CCCCCSc1ccccn1)P(=O)(O)O [Compound No. 109, trisodium 1-hydroxy-6-(2-pyridylthio)hexane-1,1-bisphosphonate] | 1300 | 5800 |  | 
O=P(O)(O)C(NCCCCNc1ccccc1)P(=O)(O)O [Compound No. 110, 4-(phenylamino)butylaminomethylene-1,1-bisphosphonic acid hydrochloride] | 44 | 61 |  | 
CCOP(=O)(O)C(NC/C=C(\C)CC/C=C(\C)CCC=C(C)C)P(=O)(O)O (centres unmarked) [Compound No. 111, (E,E)-farnesylaminomethylenebisphosphonic acid monoethyl ester monosodium salt] |  |  | 19 | 22
CCOP(=O)(O)C(NCCCCCCSc1ccccc1)P(=O)(O)O (centres unmarked) [Compound No. 113, 6-(phenylthio)hexylaminomethylenebisphosphonic acid monoethyl ester monosodium salt] |  |  | 15 | 9.8
O=P(O)(O)C(NCCCCSc1ccccc1)P(=O)(O)O [compound 1] | 18 | 8.9 |  | 
O=P(O)(O)C(NCCCCCSc1ccccc1)P(=O)(O)O [compound 6] | 5.7 |  |  | 
O=P(O)(O)C(NCCCCCCSc1ccccc1)P(=O)(O)O [compound 11] | 3.6 | 1.5 |  | 
O=P(O)(O)C(NCCCCS(=O)(=O)c1ccccc1)P(=O)(O)O [compound 12] | 6400 |  |  | 
CCOP(=O)(OCC)C(NCCCCCc1ccccc1)P(=O)(OCC)OCC [compound 14] | 560 | 450 |  | 
CCOP(=O)(OCC)C(NCCCCCSC1CCCCC1)P(=O)(OCC)OCC [compound 15] | 4100 |  |  | 
CCOP(=O)(OCC)C(NCCSCCc1ccccc1)P(=O)(OCC)OCC [compound 18] | 790 | 610 |  | 
CCOP(=O)(OCC)C(NCCCCCCSc1ccccc1)P(=O)(OCC)OCC [compound 19] | 7500 | 6900 |  | 
O=P(O)(O)C(CCCc1ccccc1)P(=O)(O)O [compound 21, 4-phenylbutylidene-1,1-bisphosphonic acid] | 5500 |  |  | 
CCOP(=O)(OCC)C(NCCCCCCSc1ccc(Cl)cc1)P(=O)(OCC)OCC [compound 28] | 6200 | 3200 |  | 
O=P(O)(O)C(NCCCCCC[S+]([O-])c1ccccc1)P(=O)(O)O (centres unmarked) [compound 60, disodium 6-(phenylsulfinyl)hexylaminomethylenebisphosphonate] | 6 | 3.1 |  | 
O=P(O)(O)C(NCCCCCCCCCCSc1ccccc1)P(=O)(O)O [compound 61] | 0.58 | 0.47 |  | 
CC(C)CCCC(C)CCCC(C)CCNC(P(=O)(O)O)P(=O)(O)O (centres unmarked) [compound 63] | 4.3 | 2.2 |  | 
O=P(O)(O)C(NCCCCCC[S+]([O-])c1ccc2ccccc2c1)P(=O)(O)O (centres unmarked) [compound 66] | 4.7 | 4 |  | 
O=P(O)(O)C(NCCCCCCCCCCC[S+]([O-])c1ccccc1)P(=O)(O)O (centres unmarked) [compound 72] | 4.5 | 4.6 |  | 
O=P(O)(O)C(NCCCCCCCCCSc1ncccn1)P(=O)(O)O [compound 79] | 8.8 | 7 |  | 
O=P(O)(O)C(NCCCCCCSc1nnc2ccccn12)P(=O)(O)O [compound 81] | 200 | 1800 |  | 
O=P(O)(O)C(NCCCCCCSc1nc2ccccc2s1)P(=O)(O)O [compound 83] | 4.3 | 8.4 |  | 
O=P(O)(O)C(NCCCCCSc1ccccc1)P(=O)(O)O [compound 88] | 13 |  |  | 
O=P(O)(O)C(NCCCCCCCCCCCCSc1ccccc1)P(=O)(O)O [compound 89, monosodium 12-(phenylthio)dodecylaminomethylenebisphosphonate] | 8.1 |  |  | 
CC(C)=CCC/C(C)=C/CC/C(C)=C/CNC(P(=O)(O)O)P(=O)(O)O [compound 93] | 19 | 20 |  | 
CC(C)=CCC/C(C)=C/CC/C(C)=C/CNC(P(=O)(O)O)P(=O)(O)O [compound 99] | 6.9 | 6.7 |  | 
O=P(O)(O)C(NCCCCCCCCCSc1ncccn1)P(=O)(O)O [compound 100] | 12 | 12 |  | 
O=P(O)(O)C(NCCCCCCCCCCSc1ncccn1)P(=O)(O)O [compound 101] | 7.8 | 6.1 |  | 
O=P(O)(O)C(NCCCCCCCCCCCSc1ccccc1)P(=O)(O)O [compound 102, trisodium 11-(phenylthio)undecylaminomethylenebisphosphonate] | 3.1 | 3 |  | 

Continued, in another order:

IC50 (squalene synthetase [1]; [3]) [nM] | IC50 (squalene synthetase [2]; [4]) [nM] | SMILES | IC50 (squalene synthetase [1]; [5]) [nM] | IC50 (squalene synthetase [2]) [nM]
97 | 180 | O=P(O)(O)C(NCCCCSc1ccccn1)P(=O)(O)O [compound 2] |  | 
210 | 300 | O=P(O)(O)C(NCCCCSc1ccncc1)P(=O)(O)O [compound 3] |  | 
370 | 1300 | CCSCCCCNC(P(=O)(O)O)P(=O)(O)O [compound 4] |  | 
760 | 9100 | CC(C)(C)SCCCCNC(P(=O)(O)O)P(=O)(O)O [compound 5] |  | 
19 | 18 | O=P(O)(O)C(NCCCCCSC1CCCCC1)P(=O)(O)O [compound 7] |  | 
68 | 110 | CCSCCCCCNC(P(=O)(O)O)P(=O)(O)O [compound 8] |  | 
9 | 6.3 | O=P(O)(O)C(NCCCC[S+]([O-])c1ccccc1)P(=O)(O)O (centres unmarked) [compound 9] |  | 
8.1 | 5.2 | O=P(O)(O)C(NCCCCCOc1ccccc1)P(=O)(O)O [compound 10] |  | 
19 | 14 | O=P(O)(O)C(NCCCCOc1ccc2c(c1)OCO2)P(=O)(O)O [compound 13] |  | 
20 | 9.7 | O=P(O)(O)C(NCCSCCc1ccccc1)P(=O)(O)O [compound 16] |  | 
18 | 12 | O=P(O)(O)C(NCCCSCc1ccccc1)P(=O)(O)O [compound 17] |  | 
940 | 6400 | O=P(O)(O)C(NC1CCCCCC1)P(=O)(O)O [compound 20] |  | 
27 | 35 | CC(C)=CCC/C(C)=C/CNC(P(=O)(O)O)P(=O)(O)O [compound 86] |  | 
